Experimental data reported in patent US20130011845A1, “MICRORNA REGULATING THE INSULIN SIGNALING PATHWAY, AND METHOD FOR SCREENING MATERIAL FOR CONTROLLING THE ACTION OF A TARGET THEREOF” (SNU R & DB Foundation, priority 2009, published 2013).

Columns and labels:
[1] = tested on: ERBB2IP 3′UTR; assay: dual-luciferase 3′UTR reporter assay, pAC-ERBB2IP; assay type: cell-based; conditions: luciferase reporter with ERBB2IP 3′UTR, human Hela cell lines; average of at least two independent experiments
Protocol: (§1) In order to determine whether the target genes identified in Example 7 are in actuality targets of miR-8 and miR-200 family miRNAs, the inventors performed cloning. In other words, […] containing the miRNA target sites. Specifically, in order to obtain cDNAs of respective target genes, from drosophila S2 cell lines or human Hela cell lines, total RNA was extracted by using RNeasy mini kit (QIAGEN, US). 1 μg of total RNA and 1 μl of Oligo-dT (Invitrogen, US) were charged with up to 50 μl of distilled water, and placed into SuperScript First-Strand Synthesis System (Invitrogen, US), followed by RT-PCR reaction. Through the reaction at 65° C. for 6 min, at 4° C. for 5 min, at 42° C. for 60 min, at 95° C. for 5 min, and at 4° C. for 5 min, cDNA was synthesized. By using the cDNA (3˜5 μg) as template, and using a primer pair on respective genes noted in Table 3 and PCR Mastermix (Promega, US), PCR was performed on 3′UTR of ush, Lap1, CG8445, dbo, Lar, Ced-12, CG12333, cbt, FOG2, SEPT7, RIN2, SHC1, HOXB5, LF11, TCF7L1, ERBB21P, ELMO2, BAP1, WDR37, KLHL20, PTPRD, RASSF2 and VAC14 from among the target genes selected in Example 7. Herein, PCRP on atro as a drosophila control gene was also performed. After the reaction was completed, the PCR product on each gene's 3′UTR region was cleaved by each of the following restriction enzymes:
(§2) Then, it was cloned into pAC5.1 luciferase vector (a kind gift of Elisa Izaurralde) cleaved by the same restriction enzymes so as to produce a reporter plasmid having a miR-8 or miR-200 family target sequence in luciferase gene's 3′UTR sequence.
(§3) Reporter plasmids and renilla luciferase expression vectors (Promega, US), as noted in Table 4, and miRNAs of miR-200 family of miR-141, miR-200a (hsa-miR-200a, SEQ ID: 87: 5′-[…]-3′), miR-200b, miR-200c (has-miR-200c, SEQ ID: 88: 5′-[…]-3′) and miR-429, and miR-8 (dme-miR-8, SEQ ID: 89: 5′-[…]-3′) were bought from Samchonri and cotransfected into drosophila S2 cell lines or human Hela cell lines. Then, the activities of luciferase were measured through dual-luciferase assay (Promega, US) by a luminometer (Biorad). Then, 7 gene pairs that respond both to miR-8 and to mir-200 family miRNAs in Drosophila and human cells, respectively were identified (see FIG. 15).

[2] = tested on: PTPRD 3′UTR; assay: dual-luciferase 3′UTR reporter assay, pAC-PTPRD; assay type: cell-based; conditions: luciferase reporter with PTPRD 3′UTR, human Hela cell lines; average of at least two independent experiments
Protocol: as §1, §2, §3

[3] = tested on: WDR37 3′UTR; assay: dual-luciferase 3′UTR reporter assay, pAC-WDR37; assay type: cell-based; conditions: luciferase reporter with WDR37 3′UTR, human Hela cell lines; average of at least two independent experiments
Protocol: as §1, §2, §3

[4] = tested on: KLF11 3′UTR; assay: dual-luciferase 3′UTR reporter assay, pAC-KLF11; assay type: cell-based; conditions: luciferase reporter with KLF11 3′UTR, human Hela cell lines; average of at least two independent experiments
Protocol: as §1, §2, §3

[5] = tested on: SHC1 3′UTR; assay: dual-luciferase 3′UTR reporter assay, pAC-SHC1; assay type: cell-based; conditions: luciferase reporter with SHC1 3′UTR, human Hela cell lines; average of at least two independent experiments
Protocol: as §1, §2, §3

[6] = tested on: MCF-7 cell lines; assay: cell proliferation by counting the number of cells; assay type: cell-based, human; conditions: MCF-7 cell lines transduced; counted on day 1, 4, 5, 6, 7 and 8; compared to untreated or siGFP cells
Source text: It has been known that when human miRNAs, that is, miR-200 family (miR-200a, miR-200b, miR-200c, miR-141, and miR-429) are transduced into human cell lines, cell growth is promoted (Park, S Y et al., 2009, Nat Struct Mol Biol 16, 23-29). In MCF-7 cell lines not treated with anything, and MCF-7 cell lines transduced with siRNA targeting GFP (siGFP, SEQ ID: 1: 5′-UGAAUUAGAUGGCGAUGUU-3′, Samchonri), miR-200 family [miR-141(has-miR-141, SEQ ID: 2: 5′-[…]-3′), miR-200b (has-miR-200b, SEQ ID: 3: 5′-[…]-3′), miR-429(has-miR-429, SEQ ID: 4: 5′-[…]-3′)] and miR-29b (known to inhibit cell proliferation), on day 1, 4, 5, 6, 7 and 8, the inventors counted the number of cells and measured cell proliferation.

[7] = tested on: FOXO; assay: FOXO luciferase reporter (pFK1tk-luc) assay in Hep3B cells; assay type: cell-based, human
Source text: The inventors analyzed the effect of miR-200 miRNAs on the downstream transducers of Akt (see FIGS. 44 to 47). Because Akt represses FOXO activity, the inventors used a luciferase reporter plasmid (pFK1tk-luc) (Biggs, W H et al., 1999, Proc Natl Acad Sci USA 96, 7421-7426) containing eight FOXO-binding sites to determine the level of FOXO activity in cultured cells. Specifically, Hep3B cells were transfected with synthesized siGFP, miR-141, miR-200a, miR-200b, miR-200c, miR-429 or siFOG2 together with pFK1tk-luc vector, and then luciferase activity was measured in the same manner as described Example 8-2. Also, Hep3B cells were transfected with luciferase, or oligonucleotides having complementary sequence to miR-141, miR-200a, miR-200b, miR-200c or miR-429 together with pFK1tk-luc vector. Then, the luciferase activity was measured in the same manner as described above. Further, Hep3B cell lines were transfected with pCK-flag (empty vector) and pCK-FOG2 produced in Example 16-1, and the luciferase activity was measured in the same manner as described above. […] Further, treating the cells with miR-200 inhibitors elevated FOXO activity (see FIG. 46).

## 5′-UAAUACUGCCUGGUAAUGAUGA-3′ (listed as RNA, chemistry not given here) [miR-200b]
[1]
  Represion fold, ERBB2IP: 0.57 fold
[2]
  Represion fold, PTPRD: 0.89 fold
[3]
  Represion fold, WDR37: 1.16 fold
[4]
  Represion fold, KLF11: 1.02 fold
[5]
  Represion fold, SHC1: 1.41 fold
[6]
  cell proliferation (number of cells): increased cell proliferation
[7]
  FOXO activity (activity of luciferase, pFK1tk-luc): significantly repressed

## 5′-UAACACUGUCUGGUAAAGAUGG-3′ (listed as RNA, chemistry not given here) [miR-141]
[1]
  Represion fold, ERBB2IP: 0.7 fold
[2]
  Represion fold, PTPRD: 0.89 fold
[3]
  Represion fold, WDR37: 1.07 fold
[4]
  Represion fold, KLF11: 1.03 fold
[5]
  Represion fold, SHC1: 1.64 fold
[6]
  cell proliferation (number of cells): increased cell proliferation
[7]
  FOXO activity (activity of luciferase, pFK1tk-luc): significantly repressed

## 5′-UAACACUGUCUGGUAACGAUGU-3′ (listed as RNA, chemistry not given here) [miR-200a]
[1]
  Represion fold, ERBB2IP: 1.18 fold
[2]
  Represion fold, PTPRD: 1.25 fold
[3]
  Represion fold, WDR37: 0.76 fold
[4]
  Represion fold, KLF11: 1.20 fold
[5]
  Represion fold, SHC1: 1.63 fold
[7]
  FOXO activity (activity of luciferase, pFK1tk-luc): significantly repressed

## 5′-UAAUACUGUCUGGUAAAACCGU-3′ (listed as RNA, chemistry not given here) [miR-429]
[1]
  Represion fold, ERBB2IP: 0.54 fold
[2]
  Represion fold, PTPRD: 0.75 fold
[3]
  Represion fold, WDR37: 1.31 fold
[4]
  Represion fold, KLF11: 1.07 fold
[5]
  Represion fold, SHC1: 2.17 fold
[6]
  cell proliferation (number of cells): increased cell proliferation
[7]
  FOXO activity (activity of luciferase, pFK1tk-luc): significantly repressed
